We go through 27 compounds from US9834550B2, “Pyridopyrimidinone compounds for modulating the catalytic activity of histone lysine demethylases (KDMs)” (Dong-A Socio Holdings Co., Ltd., priority 2014, dated 2017).

Some results are limits rather than exact numbers.

T1 sequence (Q9UGL1 whole entry): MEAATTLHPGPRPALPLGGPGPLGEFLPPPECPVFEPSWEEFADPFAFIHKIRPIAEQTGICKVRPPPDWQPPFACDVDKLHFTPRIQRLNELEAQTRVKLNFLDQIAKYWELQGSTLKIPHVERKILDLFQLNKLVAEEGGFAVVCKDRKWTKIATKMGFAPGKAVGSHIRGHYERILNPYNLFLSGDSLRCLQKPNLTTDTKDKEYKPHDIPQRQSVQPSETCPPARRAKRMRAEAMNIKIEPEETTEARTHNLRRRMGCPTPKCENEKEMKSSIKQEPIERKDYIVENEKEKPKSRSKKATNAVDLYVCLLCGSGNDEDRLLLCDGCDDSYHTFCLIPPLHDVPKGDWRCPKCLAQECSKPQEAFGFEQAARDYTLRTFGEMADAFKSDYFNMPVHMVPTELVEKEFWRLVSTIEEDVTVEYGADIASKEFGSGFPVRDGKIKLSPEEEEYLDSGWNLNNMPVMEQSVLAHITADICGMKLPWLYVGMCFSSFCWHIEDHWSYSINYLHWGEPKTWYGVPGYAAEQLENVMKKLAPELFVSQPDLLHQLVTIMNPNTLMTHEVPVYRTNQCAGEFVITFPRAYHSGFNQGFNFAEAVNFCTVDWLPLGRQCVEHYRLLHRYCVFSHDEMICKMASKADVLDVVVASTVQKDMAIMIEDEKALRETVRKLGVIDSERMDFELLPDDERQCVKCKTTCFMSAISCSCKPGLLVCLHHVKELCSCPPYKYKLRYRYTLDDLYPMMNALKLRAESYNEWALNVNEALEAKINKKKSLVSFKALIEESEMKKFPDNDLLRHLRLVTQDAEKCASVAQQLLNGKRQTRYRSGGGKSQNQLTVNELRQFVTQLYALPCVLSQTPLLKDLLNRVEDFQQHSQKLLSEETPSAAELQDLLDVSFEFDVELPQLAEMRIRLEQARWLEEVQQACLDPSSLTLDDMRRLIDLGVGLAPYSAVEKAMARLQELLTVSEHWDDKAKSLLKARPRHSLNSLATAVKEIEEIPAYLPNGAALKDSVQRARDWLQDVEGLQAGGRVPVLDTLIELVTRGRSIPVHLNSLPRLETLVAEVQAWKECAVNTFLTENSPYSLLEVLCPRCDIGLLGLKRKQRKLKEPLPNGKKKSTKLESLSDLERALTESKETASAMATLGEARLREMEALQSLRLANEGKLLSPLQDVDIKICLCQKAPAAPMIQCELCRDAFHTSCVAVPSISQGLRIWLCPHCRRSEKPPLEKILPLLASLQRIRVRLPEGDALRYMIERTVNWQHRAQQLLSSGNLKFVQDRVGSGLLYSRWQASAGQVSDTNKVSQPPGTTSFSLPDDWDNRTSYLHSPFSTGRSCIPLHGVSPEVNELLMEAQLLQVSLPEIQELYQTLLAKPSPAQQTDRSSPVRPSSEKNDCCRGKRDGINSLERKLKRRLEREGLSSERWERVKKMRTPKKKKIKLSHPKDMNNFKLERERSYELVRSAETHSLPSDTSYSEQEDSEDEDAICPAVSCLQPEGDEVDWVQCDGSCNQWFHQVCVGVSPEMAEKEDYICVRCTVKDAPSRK

This assay concerns the target T1, Recombinant human JARID1B/KDM5B (Homo sapiens, UniProt Q9UGL1).
T1 construct: purchased Active Motif 31432; host or cells: Sf9 insect cells
The assay can be described thus: LANCE Ultra TR-FRET demethylase assay with FLAG-tagged JARID1B. It is filed as biochemical. Particulars: 100 nM compound; 500 nM biotinylated H3K4me3 peptide substrate. An excerpt: FLAG-tagged JARID1B (also known as KDM5B) protein was screened against more than 170 compounds. For this compound screening, LANCE Ultra time-resolved fluorescence resonance energy transfer (TR-FRET) assay was employed using an europoium (Eu)-labeled antibody that can specifically recognize mono- or dimethylated peptides (H3K4me2/1) and ULight-streptavidin (ULight-SA), a small molecule fluorescent dye. When irradiated at 340 nm, the energy from the Eu donor is transferred to the ULight acceptor dye which, in turn, emits light primarily at 665 nm. The ratio between the intensity of primary emission at 665 nm and that of secondary emission at 590 nm was used to quantify the level of lysine methylation. As JARID1B removes more methyl moieties from tri-methylated substrate peptides (H3K4me3), the ratio increases until the enzyme reaction is terminated. In case, therefore, the compounds disrupt the enzymatic activity completely, the ratio becomes equal to a background value.
Recombinant human JARID1B/KDM5B (accession number NP_006609) of molecular weight 179.9 KDa was expressed in Sf9 insect cells and contains an N-terminal FLAG tag. The enzyme was obtained from Active Motif (Catalog No. 31432). The tri-methylated histone substrate peptide of purity greater than 95% was a synthetic peptide in which the first 21 amino acids correspond to the human histone H3 sequence with three extra amino acids and a biotin motif (GGK-biotin) linked to the C-terminus [sequence: ART-K (Me3)-QTARKSTGGKAPRKQLA-GGK-biotin-OH], (AnaSpec, Fremont, Calif. Catalog. No. ANA-1413). The reference inhibitory compound tranylcypromine (or trans-2-phenylcyclopropylamine hydrochloride, also known as, 2-PCPA) was purchased from Sigma (St. Louis, Mo. Cat. no. P8511). ULight-labeled streptavidin (ULight-SA, Catalog no. TRF0102), Eu-W1024-labeled anti-methyl-Histone H3 Lysine 4 (H3K4me1-2) Antibody (Catalog no. TRF0402), and LANCE detection buffer 10× (Catalog no. CR97-100) were obtained from PerkinElmer (Montreal, Quebec, Canada). The TR-FRET experiments were carried out in white, low-volume 384-wellplates purchased from PerkinElmer (ProxiPlate-384 Plus, Catalog no. 6008280).
The TR-FRET signal was measured in the presence both of the bio-H3K4me3 peptide and FLAG-JARID1B by detecting any H3K4me2/1 peptide produced in the assay system. Assays using only the bio-H3K4me2 peptide were served as a positive control. Robust enzymatic progressions were observed by using JARID1B at concentrations ranging from 10 to 30 nM. In a typical TR-FRET experiment, JARID1B was pre-incubated with or without 20 uM, 1 uM, or 0.1 uM of test-compounds (containing 1% DMSO final) for […]. The enzymatic reactions were initiated by the addition of 500 nM biotinylated H3K4me3 peptide substrate plus 500 uM of 2-OG, 25 uM Fe(II) and 2 mM ascorbate. The reaction buffer also contained 50 mM Hepes (pH7.5), 0.01% (v/v) Tween 20, and 50 mM NaCl. The reaction mixture was incubated for […] at room temperature before reading on an EnVision plate reader (PerkinElmer, Waltham, Mass.).
For orientation: TR-FRET usually uses a lanthanide donor and a delayed reading to cut background.
For the compound `O=c1[nH]c(COc2cccc(Cl)c2Cl)nc2c(CNCC3CCNCC3)nccc12` [Example 113, 2-((2,3-dichlorophenoxy)methyl)-8-(((piperidin-4-ylmethyl)amino)methyl)pyrido[3,4-d]pyrimidin-4(3H)-one], the inhibition – broadly, the change of the read-out against control, counted positive when it falls – at 0.1 µM lay in the range of 20 to 50%. Under `O=c1[nH]c(COc2ccc(Cl)cc2Cl)nc2c(CNCC3CCNCC3)nccc12` [Example 114, 2-((2,4-dichlorophenoxy)methyl)-8-(((piperidin-4-ylmethyl)amino)methyl)pyrido[3,4-d]pyrimidin-4(3H)-one] stands 20 to 50%; under `O=c1[nH]c(COc2cc(Cl)ccc2Cl)nc2c(CNCC3CCNCC3)nccc12` [Example 115, 2-((2,5-dichlorophenoxy)methyl)-8-(((piperidin-4-ylmethyl)amino)methyl)pyrido[3,4-d]pyrimidin-4(3H)-one], 20 to 50%.

As for `O=c1[nH]c(COc2ccccc2F)nc2c(CNCC3CCNCC3)nccc12` [Example 116, 2-((2-fluorophenoxy)methyl)-8-(((piperidin-4-ylmethyl)amino)methyl)pyrido[3,4-d]pyrimidin-4(3H)-one], the inhibition at 0.1 µM lay in the range of 20 to 50%. For `O=c1[nH]c(COc2ccccc2Br)nc2c(CNCC3CCNCC3)nccc12` [Example 117, 2-((2-bromophenoxy)methyl)-8-(((piperidin-4-ylmethyl)amino)methyl)pyrido[3,4-d]pyrimidin-4(3H)-one], the inhibition at 0.1 µM lay in the range of 20 to 50%.

With `Cc1ccccc1OCc1nc2c(CNCC3CCNCC3)nccc2c(=O)[nH]1` [Example 118, 8-(((piperidin-4-ylmethyl)amino)methyl)-2-((o-tolyloxy)methyl)pyrido[3,4-d]pyrimidin-4(3H)-one], the inhibition at 0.1 µM was in the range of 20 to 50%. Turning to `Cc1cccc(OCc2nc3c(CNCC4CCNCC4)nccc3c(=O)[nH]2)c1` [Example 119, 8-(((piperidin-4-ylmethyl)amino)methyl)-2-((m-tolyloxy)methyl)pyrido[3,4-d]pyrimidin-4(3H)-one], the inhibition at 0.1 µM lay in the range of 20 to 50%.

In the case of `Cc1ccc(OCc2nc3c(CNCC4CCNCC4)nccc3c(=O)[nH]2)cc1` [Example 120, 8-(((piperidin-4-ylmethyl)amino)methyl)-2-((p-tolyloxy)methyl)pyrido[3,4-d]pyrimidin-4(3H)-one], the inhibition at 0.1 µM fell in the range of 20 to 50%. Under `O=c1[nH]c(COc2ccc(Cc3ccccc3)cc2)nc2c(CNCC3CCNCC3)nccc12` [Example 121, 2-((4-benzylphenoxy)methyl)-8-(((piperidin-4-ylmethyl)amino)methyl)pyrido[3,4-d]pyrimidin-4(3H)-one] stands more than 50%; under `O=c1[nH]c(COc2ccccc2Cl)nc2c(CNCC3CCNCC3)nccc12` [Example 122, 2-((2-chlorophenoxy)methyl)-8-(((piperidin-4-ylmethyl)amino)methyl)pyrido[3,4-d]pyrimidin-4(3H)-one], 20 to 50%; under `O=c1[nH]c(COc2ccccc2)nc2c(CNCC3CCNCC3)nccc12` [Example 123, 2-(phenoxymethyl)-8-(((piperidin-4-ylmethyl)amino)methyl)pyrido[3,4-d]pyrimidin-4(3H)-one], 20 to 50%.

For the compound `O=c1[nH]c(COc2ccc(F)cc2F)nc2c(CNCC3CCNCC3)nccc12` [Example 124, 2-((2,4-difluorophenoxy)methyl)-8-(((piperidin-4-ylmethyl)amino)methyl)pyrido[3,4-d]pyrimidin-4(3H)-one], the inhibition at 0.1 µM is 20 to 50%. Turning to `O=c1[nH]c(COc2cc(F)cc(F)c2)nc2c(CNCC3CCNCC3)nccc12` [Example 125, 2-((3,5-difluorophenoxy)methyl)-8-(((piperidin-4-ylmethyl)amino)methyl)pyrido[3,4-d]pyrimidin-4(3H)-one], the inhibition at 0.1 µM lay in the range of 20 to 50%.

`O=c1[nH]c(COc2ccc(F)c(Cl)c2)nc2c(CNCC3CCNCC3)nccc12` [Example 126, 2-((3-chloro-4-fluorophenoxy)methyl)-8-(((piperidin-4-ylmethyl)amino)methyl)pyrido[3,4-d]pyrimidin-4(3H)-one]: the inhibition at 0.1 µM is more than 50%.

Turning to `O=c1[nH]c(COc2ccc(Cl)c(F)c2)nc2c(CNCC3CCNCC3)nccc12` [Example 127, 2-((4-chloro-3-fluorophenoxy)methyl)-8-(((piperidin-4-ylmethyl)amino)methyl)pyrido[3,4-d]pyrimidin-4(3H)-one], the inhibition at 0.1 µM lay within 20 to 50%. Under `N#Cc1ccccc1OCc1nc2c(CNCC3CCNCC3)nccc2c(=O)[nH]1` [Example 128, 2-((4-oxo-8-(((piperidin-4-ylmethyl)amino)methyl)-3,4-dihydropyrido[3,4-d]pyrimidin-2-yl)methoxy)benzonitrile] stands 20 to 50%; under `N#Cc1ccc(OCc2nc3c(CNCC4CCNCC4)nccc3c(=O)[nH]2)cc1` [Example 129, 4-((4-oxo-8-(((piperidin-4-ylmethyl)amino)methyl)-3,4-dihydropyrido[3,4-d]pyrimidin-2-yl)methoxy)benzonitrile], 20 to 50%.

In the case of `Cc1ccc(Cl)c(OCc2nc3c(CNCC4CCNCC4)nccc3c(=O)[nH]2)c1` [Example 130, 2-((2-chloro-5-methylphenoxy)methyl)-8-(((piperidin-4-ylmethyl)amino)methyl)pyrido[3,4-d]pyrimidin-4(3H)-one], the inhibition at 0.1 µM was more than 50%. In the case of `O=c1[nH]c(COc2cnc(Br)cn2)nc2c(CNCC3CCNCC3)nccc12` [Example 131, 2-(((5-bromopyrazin-2-yl)oxy)methyl)-8-(((piperidin-4-ylmethyl)amino)methyl)pyrido[3,4-d]pyrimidin-4(3H)-one] it was 20 to 50%; in that of `O=c1[nH]c(COc2cccc(Cl)c2)nc2c(CNCC3CCNCC3)nccc12` [Example 132, 2-((3-chlorophenoxy)methyl)-8-(((piperidin-4-ylmethyl)amino)methyl)pyrido[3,4-d]pyrimidin-4(3H)-one], more than 50%. Regarding `O=c1[nH]c(COc2ccccn2)nc2c(CNCC3CCNCC3)nccc12` [Example 133, 8-(((piperidin-4-ylmethyl)amino)methyl)-2-((pyridin-2-yloxy)methyl)pyrido[3,4-d]pyrimidin-4(3H)-one], the inhibition at 0.1 µM is less than 20%.

Regarding `Cc1cc(OCc2nc3c(CNCC4CCNCC4)nccc3c(=O)[nH]2)ccc1Cl` [Example 134, 2-((4-chloro-3-methylphenoxy)methyl)-8-(((piperidin-4-ylmethyl)amino)methyl)pyrido[3,4-d]pyrimidin-4(3H)-one], the inhibition at 0.1 µM lay within 20 to 50%. In the case of `CCc1ccc(OCc2nc3c(CNCC4CCNCC4)nccc3c(=O)[nH]2)cc1` [Example 135, 2-((4-ethylphenoxy)methyl)-8-(((piperidin-4-ylmethyl)amino)methyl)pyrido[3,4-d]pyrimidin-4(3H)-one] it was 20 to 50%; in that of `Cc1ccc(OCc2nc3c(CNCC4CCNCC4)nccc3c(=O)[nH]2)cc1C` [Example 136, 2-((3,4-dimethylphenoxy)methyl)-8-(((piperidin-4-ylmethyl)amino)methyl)pyrido[3,4-d]pyrimidin-4(3H)-one], 20 to 50%. On to `Cc1cc(Cl)ccc1OCc1nc2c(CNCC3CCNCC3)nccc2c(=O)[nH]1` [Example 137, 2-((4-chloro-2-methylphenoxy)methyl)-8-(((piperidin-4-ylmethyl)amino)methyl)pyrido[3,4-d]pyrimidin-4(3H)-one], for which the inhibition at 0.1 µM lay in the range of 20 to 50%. On to `N#Cc1cccc(OCc2nc3c(CNCC4CCNCC4)nccc3c(=O)[nH]2)c1` [Example 138, 3-((4-oxo-8-(((piperidin-4-ylmethyl)amino)methyl)-3,4-dihydropyrido[3,4-d]pyrimidin-2-yl)methoxy)benzonitrile], for which the inhibition at 0.1 µM was 20 to 50%.

For `O=c1[nH]c(COc2ccc3c(c2)CCC3)nc2c(CNCC3CCNCC3)nccc12` [Example 139, 2-(((2,3-dihydro-1H-inden-5-yl)oxy)methyl)-8-(((piperidin-4-ylmethyl)amino)methyl)pyrido[3,4-d]pyrimidin-4(3H)-one], the inhibition at 0.1 µM lay in the range of 20 to 50%.
